Counter-ions that a name gives are not always drawn. Like-named read-outs stand apart in the source and are kept apart here.
Experiment: Phase 1a study: pharmacokinetics after oral BID dosing in subjects with advanced solid tumors
Assay type: in vivo, human
Set-up: Increase in mean: scale not given here
Conditions: for Increase in mean: 600 mg vs preceding dose level (400 mg); for Cmax / half-life / AUC(0-t) / Vd/F / Tmax: human, in vivo, po; for Vd/F: read-out: Vz/F
Procedure: This example describes a first in human, Phase 1a, multi-center, open-label study to establish the maximum tolerated dose (MTD) and evaluate the safety and tolerability of oral dosing of Form A of the hemi-fumarate salt of the compound of formula (I) (Example 11) in a dose-escalating fashion. Form A of the hemi-fumarate salt was orally administered BID every day with food or within 30 minutes of completing a meal, starting at 25 mg, with doses escalating to 50, 100, 200, 400, 600, and 900 mg BID as safety allows for each 3-week treatment cycle.
Up to 36 qualified subjects at 3 to 5 US sites, who have specific tumor types of renal cell carcinoma (RCC), gastric cancer (GC), metastatic breast cancer (MBC), small cell lung cancer (SCLC), and other solid tumors (e.g., non-small cell lung cancer, colorectal cancer, carcinoma of unknown primary) with the exception of rapidly progressing neoplasms (e.g., pancreatic cancer, glioblastoma, hepatocellular carcinoma) received Form A of the hemi-fumarate salt. Every effort was made to ensure approximately 50% of all subjects enrolled were subjects with RCC and GC. The starting dose level was 25 mg twice daily (BID), escalating to 50, 100, and 200 mg BID as safety allows, following the Bayesian Optimal Interval (BOIN) design. The safety monitoring committee (SMC) evaluated the dose-limiting toxicities (DLTs) and cumulative safety and PK data at the end of each cohort. Based on the SMC recommendations after a comprehensive review of PK and safety data for 200 mg BID dose, higher dose levels were evaluated, starting with 400 mg BID. The dose escalated to 600 mg and then 900 mg following the BOIN design starting with 1 subject at each escalated dose, until the MTD was reached or the sponsor or SMC declares the dose most appropriate for clinical development. This Phase 1a will be expanded into a Phase 1b/2a study through a protocol amendment and will then assess the dose and tumor type(s) selected in Phase 1a as the most appropriate for further clinical development. Subjects were dosed until unacceptable toxicity, disease progression per immune-related Response Evaluation Criteria in Solid Tumors (iRECIST), subject withdrawal, any other administrative reasons, or after 2 years of treatment, whichever occurs first. Efficacy was assessed via Response Evaluation Criteria in Solid Tumors 1.1 (RECIST 1.1); computed tomography (CT) scans were conducted every 6 weeks. Safety, including occurrence of dose-limiting toxicities (DLTs), pharmacokinetics (PK), and biomarker parameters were also assessed.
Form A of the hemi-fumarate salt was orally administered BID with food or within 30 minutes of completing a meal, starting at 25 mg, with doses escalating to 50, 100, 200, 400, 600 and 900 mg BID as safety allowed. Up to 24 subjects were enrolled to ensure 12 subjects completed the study at the estimated MTD of Form A of the hemi-fumarate salt. Dosing occurred in 3-week cycles. Subjects spent Cycle 1/Day 1 (C1D1) in the clinic followed by an overnight stay for safety monitoring and PK sampling. Subjects were hospitalized for administration of first 3 doses: CID1 am and pm doses, and Cycle 1/Day 2 (C1D2) am dose; on Days 8, 15, and 21 the am dose was taken in the clinic after the planned PK samples. All other doses were self administered at home.
Results of Cohorts 1 to 6 the study are detailed in Tables 47-50 below.

[1] = 25 mg, 25 mg single oral dose, Cycle 1 Day 1, geometric mean, N = 3
[2] = 50 mg, 50 mg single oral dose, Cycle 1 Day 1, geometric mean, N = 3
[3] = 200 mg, 200 mg single oral dose, Cycle 1 Day 1, geometric mean, N = 5

## Cc1cc(NC(=O)[C@H](O)c2cc(F)cc(F)c2)ccc1-c1cnc(N)c(C(=O)NC(C)C)c1 [Form A of the hemi-fumarate salt, (R)-2-amino-5-(4-(2-(3,5-difluorophenyl)-2-hydroxyacetamido)-2-methylphenyl)-N-isopropylnicotinamide]
Single oral dose, Cycle 1 Day 1
  Increase in mean: 3.03
Twice daily oral, Cycle 1 Day 21
  Increase in mean: 1.19
[1]
  Cmax: 120 ng/mL
  Vd/F: 147 L
25 mg, 25 mg single oral dose, Cycle 1 Day 1, geometric mean, N = 3, interpret with caution, terminal elimination phase not well captured, read-out: t1/2 (converted)
  half-life: 8.99 h
25 mg, 25 mg single oral dose, Cycle 1 Day 1, geometric mean, N = 3, read-out: AUC0-12
  AUC(0-t): 850 ng·h/mL
25 mg, 25 mg single oral dose, Cycle 1 Day 1, geometric mean, N = 3, read-out: AUC0-last
  AUC(0-t): 850 ng·h/mL
25 mg, 25 mg single oral dose, Cycle 1 Day 1, median, N = 3
  Tmax: 8 h
25 mg, 25 mg twice daily oral, Cycle 1 Day 21, N = 3, interpret with caution, terminal elimination phase not well captured, read-out: t1/2 (converted)
  half-life: 16 h
25 mg, 25 mg twice daily oral, Cycle 1 Day 21, N = 3
  Vd/F: 150 L
25 mg, 25 mg twice daily oral, Cycle 1 Day 21, geometric mean, N = 3
  Cmax: 537 ng/mL
25 mg, 25 mg twice daily oral, Cycle 1 Day 21, geometric mean, N = 3, read-out: AUC0-last
  AUC(0-t): 4110 ng·h/mL
25 mg, 25 mg twice daily oral, Cycle 1 Day 21, geometric mean, N = 3, read-out: t1/2, eff (converted)
  half-life: 35.8 h
25 mg, 25 mg twice daily oral, Cycle 1 Day 21, median, N = 3
  Tmax: 2 h
[2]
  Cmax: 243 ng/mL
  Vd/F: 141 L
50 mg, 50 mg single oral dose, Cycle 1 Day 1, geometric mean, N = 3, interpret with caution, terminal elimination phase not well captured, read-out: t1/2 (converted)
  half-life: 11.1 h
50 mg, 50 mg single oral dose, Cycle 1 Day 1, geometric mean, N = 3, read-out: AUC0-12
  AUC(0-t): 2090 ng·h/mL
50 mg, 50 mg single oral dose, Cycle 1 Day 1, geometric mean, N = 3, read-out: AUC0-last
  AUC(0-t): 2090 ng·h/mL
50 mg, 50 mg single oral dose, Cycle 1 Day 1, median, N = 3
  Tmax: 4 h
50 mg, 50 mg twice daily oral, Cycle 1 Day 21, geometric mean, N = 3
  Cmax: 978 ng/mL
50 mg, 50 mg twice daily oral, Cycle 1 Day 21, geometric mean, N = 3, read-out: AUC0-last
  AUC(0-t): 9070 ng·h/mL
50 mg, 50 mg twice daily oral, Cycle 1 Day 21, geometric mean, N = 3, read-out: t1/2, eff (converted)
  half-life: 31.5 h
50 mg, 50 mg twice daily oral, Cycle 1 Day 21, median, N = 3
  Tmax: 2 h
100 mg, 100 mg single oral dose, Cycle 1 Day 1, geometric mean, N = 4
  Cmax: 380 ng/mL
100 mg, 100 mg single oral dose, Cycle 1 Day 1, geometric mean, N = 4, read-out: AUC0-12
  AUC(0-t): 2800 ng·h/mL
100 mg, 100 mg single oral dose, Cycle 1 Day 1, geometric mean, N = 4, read-out: AUC0-last
  AUC(0-t): 1930 ng·h/mL
100 mg, 100 mg single oral dose, Cycle 1 Day 1, median, N = 4
  Tmax: 7 h
100 mg, 100 mg twice daily oral, Cycle 1 Day 21, N = 3, interpret with caution, terminal elimination phase not well captured, read-out: t1/2 (converted)
  half-life: 37.6 h
100 mg, 100 mg twice daily oral, Cycle 1 Day 21, N = 3
  Vd/F: 383 L
100 mg, 100 mg twice daily oral, Cycle 1 Day 21, geometric mean, N = 3
  Cmax: 1310 ng/mL
100 mg, 100 mg twice daily oral, Cycle 1 Day 21, geometric mean, N = 3, read-out: AUC0-last
  AUC(0-t): 11700 ng·h/mL
100 mg, 100 mg twice daily oral, Cycle 1 Day 21, geometric mean, N = 3, read-out: t1/2, eff (converted)
  half-life: 30.1 h
100 mg, 100 mg twice daily oral, Cycle 1 Day 21, median, N = 3
  Tmax: 4 h
[3]
  Cmax: 839 ng/mL
  Vd/F: 331 L
200 mg, 200 mg single oral dose, Cycle 1 Day 1, geometric mean, N = 5, interpret with caution, terminal elimination phase not well captured, read-out: t1/2 (converted)
  half-life: 20.6 h
200 mg, 200 mg single oral dose, Cycle 1 Day 1, geometric mean, N = 5, read-out: AUC0-12
  AUC(0-t): 5800 ng·h/mL
200 mg, 200 mg single oral dose, Cycle 1 Day 1, geometric mean, N = 5, read-out: AUC0-last
  AUC(0-t): 5800 ng·h/mL
200 mg, 200 mg single oral dose, Cycle 1 Day 1, median, N = 5
  Tmax: 4 h
200 mg, 200 mg twice daily oral, Cycle 1 Day 21, N = 4, interpret with caution, terminal elimination phase not well captured, read-out: t1/2 (converted)
  half-life: 7.71 h
200 mg, 200 mg twice daily oral, Cycle 1 Day 21, N = 4
  Vd/F: 79.4 L
200 mg, 200 mg twice daily oral, Cycle 1 Day 21, geometric mean, N = 4
  Cmax: 2990 ng/mL
200 mg, 200 mg twice daily oral, Cycle 1 Day 21, geometric mean, N = 4, read-out: AUC0-last
  AUC(0-t): 27200 ng·h/mL
200 mg, 200 mg twice daily oral, Cycle 1 Day 21, geometric mean, N = 4, read-out: t1/2, eff (converted)
  half-life: 35.9 h

From patent US20260265199A1, “CRYSTALLINE FORMS OF (R)-2-AMINO-5-(4-(2-(3,5-DIFLUOROPHENYL)-2-HYDROXYACETAMIDO)-2-METHYLPHENYL)-N-ISOPROPYLNICOTINAMIDE AND METHODS FOR USING THE SAME” (HIBERCELL, INC., priority 2023, published 2026)
